For one experiment, the system named is Tregs. Briefly: CNI (CsA, FK506) effect on Treg survival in vitro. To be noted: cyclosporine 20, 200, 2000 ng/ml or FK506 3, 10, 30 ng/ml, 2-3 days; IL-2 300 U/mL; even at >3-fold over peak therapeutic values. Format: cell-based, human.
Another experiment deals with allogeneic GVHD model. Type of experiment: in vivo. The source says:
To test whether gene modified (GR2-CRISPR/Cas9) or gene edited (GR2-CRISPR/Cas9/AAV-CaN mut.) Tregs have increased efficacy in vivo in the presence of glucocorticoid, how glucocorticoid (methyl-prednisolone) effects GVHD in preclinical mouse models was first determined. […] For these reasons, as well as the more logistically feasible and cost effective benefits of an allogeneic GVHD model, optimized steroid use in allogeneic recipients for GVHD prevention and therapy were first tested, and then applied to a xenogeneic model to enable testing of the human Treg product. […] The T cell dose was reduced to 1.5×10^6 and moved to GVHD therapy beginning on day 3 or day 4 (rather than day 1 prophylaxis) and compared no treatment to vehicle to prednisolone (n=8/group).

The next experiment concerns xeno-GVHD model. Briefly: Xenogeneic GVHD model (NSG mice given human PBMC). Format: in vivo. As for the experimental part:
FIGS. 11A-11D depicts the monitoring of GVHD in mice. Human PBMC (15×10^6) were injected into irradiated (50 rad) NSG mice±methylprednisolone (15 mg/kg), and signs of GVHD were monitored. FIG. 11A depicts a schematic illustration of the experiments indicating cohorts (n=7 mice each), dosing schedule, and analysis points. FIG. 11B depicts Kaplan-Meier survival curves for mice receiving PBMC only, or PBMC+prednisolone (p=0.104). FIG. 11C depicts disease progression monitored by weight loss (p=not significant). FIG. 11D depicts disease progression monitored by quantitating the number of PBMC-derived CD45+, CD4+, CD8+, and CD4+Foxp3+ T cells (p<0.03, <0.05, <0.03, and not significant, respectively). Animals were bled on day 19 for assessment.
FIGS. 12A-12D depicts the monitoring of GVHD in mice. […] FIG. 12B depicts Kaplan-Meier survival curves for mice receiving PBMC only, or PBMC+CNI (PBMC only vs. FK506 (36 mg/kg), p≤0.04). FIG. 12C depicts disease progression monitored by weight loss (p=not significant). FIG. 12D depicts disease progression monitored by quantitating the number of PBMC-derived CD45+, CD4+, CD8+, and CD4+Foxp3+ T cells (p<0.03, <0.05, <0.02, and not significant, respectively). Animals were bled on day 18 for assessment.
A follow up study has shown that xeno-GVHD pathology induced with 200 rad+1×10^7 human PBMC is more reproducible, and median survival is reduced from ˜25 days to ˜20 days.

Molecules are shown by their SMILES.

Source text for Tregs: The percent survival relative to the control Tregs without drugs is shown. IL-2 concentration of 300 U/mL was used. […] FIG. 7D depicts data showing the percent relative survival of Tregs without drug at IL-2 300 U/mL as compared to those cultured with the indicated concentrations of drug in the presence of IL-2 at 30, 100, or 300 U/mL as indicated. Mean values are shown±standard error of the mean for three (FIG. 7B) or four (FIG. 7D) separate cultures.
To model the in vivo inhibitory effects of CNI on Treg survival and expansion, banked Tregs were thawed, re-stimulated, expanded for 4±1 days and treated with or without cyclosporine (20, 200, and 2000 ng/ml) or FK506 (3, 10, 30 ng/ml) for an additional 2-3 days and relative survival was assessed by flow cytometry. Studies were performed with non-separated Tregs, naïve Tregs and memory Tregs, to determine whether one subset was differentially sensitive to Dex and CNIs and to determine whether IL-2 dependency differences might permit lower IL-2 concentrations.

On to `C=CC[C@@H]1/C=C(\C)C[C@H](C)C[C@H](OC)[C@H]2O[C@@](O)(C(=O)C(=O)N3CCCC[C@H]3C(=O)O[C@H](/C(C)=C/[C@@H]3CC[C@@H](O)[C@H](OC)C3)[C@H](C)[C@@H](O)CC1=O)[C@H](C)C[C@@H]2OC` [FK506, Tacrolimus], for which the “effect on Treg survival in vitro” value with Tregs was “neither CsA or FK506 had a significant effect on Treg survival”. Moreover, the “day 100 survival” value in the experiment with allogeneic GVHD model (36 mg/kg/day in carboxymethylcellulose, vehicle 0% by day 37) is 55%-90. In addition, the GVHD prophylaxis efficacy entry in the experiment on allogeneic GVHD model (12 or 24 mg/kg/day in aqueous solution) is on record as “poorer efficacy”. Moreover, in the experiment with allogeneic GVHD model (allogeneic GVHD model), the “optimal GVHD prophylactic dose” value is 36 mg/kg/day. Moreover, the survival entry in the experiment with xeno-GVHD model (12 mg/kg, P=0.45) is on record as “not significantly different”; in the experiment on xeno-GVHD model (high dose, 36 mg/kg) it was “significantly decreased survival”. The median survival in the experiment with xeno-GVHD model (12 mg/kg, controls 29 days) is recorded as 20 days. Moreover, the “in vivo expansion of human CD45+, CD4+ and CD8+ cells” value in the experiment on xeno-GVHD model (FK506 36 or 12 mg/kg, CsA 80 mg/kg, vs PBMC only controls) is reported as “significantly reduced”.

These data come from patent publication US12343397B2, “Drug-resistant immune cells and methods of use thereof” (Regents of the University of Minnesota, priority 2018, dated 2025).
